Test results from patent US20220096529A1, “2-HYDROXYPROPYL-BETA-CYCLODEXTRIN (HPBETACD) FOR USE IN THE TREATMENT OF BREAST CANCER” (UNIVERSITY OF THE WITWATERSRAND, JOHANNESBURG, priority 2019, published 2022).
Several values for one entry are separate records, joined by “and”; a condition that tells them apart may be missing. Equal entries are not always repeated. Entries after “also recorded” stand apart in the source; their conditions may differ.

Legend:
[1] = system: MDA-MB-231 cells; test: Cell-APOPercentage apoptosis assay; format: cell-based, human; conditions: 24 hrs
Procedure: (§1) APOPercentage assays gives a measure of overall apoptosis in the cell. Apoptosis is an early event and therefore just one time point (24 hrs) was selected and tested on four cell lines MCF7, MDA-MB-231, MRC-5 & HEK-293 cells. 10 μM Plumbagin was used a positive control as opposed to 40 μM from MTT because higher concentrations of plumbagin was way too toxic for the cells and to capture the early activity, optimal dosage was required. To confirm the growth inhibition obtained from the MTT assay was actually due to apoptosis, a Cell-APOPercentage Apoptosis assay was performed according to known methods.

[2] = system: MRC-5 cells; test: Cell-APOPercentage apoptosis assay; format: cell-based, human; conditions: 24 hrs
Procedure: as §1

[3] = system: HEK-293 cells; test: Cell-APOPercentage apoptosis assay; format: cell-based, human; conditions: 24 hrs
Procedure: as §1

[4] = system: MCF7 cells; test: Cell-APOPercentage apoptosis assay; format: cell-based, human; conditions: MCF7, 10 mM HPβCD, 24 hrs
Procedure: as §1

[5] = system: MDA-MB-231 cells; test: Alexa Fluor lipid raft staining; format: cell-based, human
[6] = system: MDA-MB-231 cells; test: Cholesterol quantification assay; format: cell-based, human; conditions: MDA-MB-231, all concentrations 1, 5, 10, 20, 50 mM
Procedure: (§2) To investigate if the apoptosis observed from all the above assays was due to cholesterol depletion, a cholesterol assay was performed on all three cell lines: MCF7, MDA-MB-231 and MRC-5. HPβCD and the positive PL, a known cholesterol depletor were treated for 24 hrs.
(§3) HPβCD and the positive (40 μM PL) were treated for 24 hrs. This assay gave us an estimate of total cholesterol, cholesterol esters and free cholesterol.

[7] = system: MRC-5 cells; test: Cholesterol quantification assay; format: cell-based, human
Procedure: as §2, §3

[8] = system: MCF7 cells; test: Cholesterol quantification assay; format: cell-based, human; conditions: MCF7, all concentrations 1, 5, 10, 20, 50 mM
Procedure: as §2, §3

[9] = system: MDA-MB-231 tumours; test: Hematoxylin and eosin staining of xenograft tumours; format: in vivo, mice
Text: Hematoxylin and cosin staining of mice was undertaken in untreated, intermediate and late stage MDA-MB-231 mice as is shown in FIG. 36.
The individual cells are markedly pleomorphic and have raised nuclear to cytoplasmic ratios. The neoplastic cells have irregular nuclear borders and the cells have vesicular chromatic with one to multiple prominent nucleoli. Brisk mitotic activity is evident. Areas of perineural and lymphovascular invasion are however, not documented.

[10] = system: MDA-MB-231 cells; test: Mice xenograft, triple negative breast cancer; format: in vivo, Nude Mice, MF-1 strain
Procedure: Since the potency of HPβCD against breast cancer was established in our in vitro assays, a thorough investigation in a mice model was conducted (Nude Mice. MF-1 strain). MCF-7 and MDA-MB-231 cells were injected in 32 mice (16 for each cell type) and after tumour development, was treated with HPβCD (3000 mg/kg b.w.). Thrice a week dose treatment plan was followed throughout the study.
To examine if HPβCD can be used as a future anti-breast cancer drug, mice xenografts were prepared. MCF7 cells (5 million) cells were injected in 16 mice with weekly β-estradiol supplementation. The study for triple negative induced breast cancer (MDA-MB-231) is complete. Up to 4 million cells were injected in 16 mice. This was subdivided in three more groups namely: Late stage, intermediate stage and early stage estrogen negative cancer. 4 mice were grouped as untreated (not receiving HPβCD), 4 for treated (late stage), 3 for treated (intermediate stage) and 3 for treated (early stage).
This is because MDA-MB-231 cells are extremely aggressive in nature and that is the reason there is any adequate treatments except the side effects prone to chemotherapy. These 4 mice had to be euthanized at this point because of humane end points. In the late stage treated group, the treatment commenced when the size of the tumour was in between 900 mm^3 to 1350 mm^3 (FIG. 30 A, B, C).
In the intermediate stage group (n=3), the treatment commenced when the size of the tumours reached […]. Again, after 10 doses of HPβCD treatment we saw the average size of the tumours went down to […] which is a staggering 94% decrease (FIG. 31 B, C) as compared to the untreated group. This was remarkable considering how invasive MDA-MB-231 cells are and HPβCD's ability to tame them was quite phenomenal. Finally, in the early stage group (n=3), the treatment commenced when the tumour size was 20 mm^3 (FIG. 33 A. B). […] These 3 mice were then kept for a period of 4 weeks to check for relapse of tumour because estrogen negative tumours have an extreme propensity to recur.

[11] = system: SREBP-1 in MRC-5 cells; test: Western blotting for SREBP-1; format: cell-based, human; conditions: MRC-5, 10 mM HPβCD, 24 hrs
Procedure: (§4) In order to delve in to more detailed mechanisms of cholesterol depletion a western blotting analysis was conducted for SREBP-1 protein, which is a known transcription factor involved in cholesterol homeostasis. Lysates from MCF7, MDA-MB-231 and MRC-5 cells were used. 10 mM HPβCD was treated for 24 hrs. SREBPs are key elements responsible for the gene expression of vital enzymes involved in fatty acid synthesis which includes SREBP 1 and SREBP 2. […] In order to investigate this characteristic feature of SREBPs a western blot analysis was conducted to see if HPβCD treatment does alter SREBP levels.

[12] = system: SREBP-1 in MDA-MB-231 cells; test: Western blotting for SREBP-1; format: cell-based, human; conditions: MDA-MB-231, 10 mM HPβCD, 24 hrs
Procedure: as §4

[13] = system: SREBP-1 in MCF7 cells; test: Western blotting for SREBP-1; format: cell-based, human; conditions: MCF7, 10 mM HPβCD, 24 hrs
Procedure: as §4

[14] = late stage treated mice, one value per case
[15] = intermediate stage, 3000 mg/kg b.w., 10 doses

2-hydroxypropyl-β-cyclodextrin [HPβCD] was tested, and the “cell death (apoptosis)” value ([1]; MDA-MB-231, 10 mM HPβCD) was “around 40%”, the “maximum cell death (apoptosis)” value ([1]; MDA-MB-231, 50 mM HPβCD) was roughly 70% and the “cell death (apoptosis)” value ([2]; MRC-5, 20 mM HPβCD) was roughly 15%. For the same substance, the “cell death (apoptosis)” value ([2]; MRC-5, 50 mM HPβCD) was roughly 18%, the “cell death (apoptosis)” value ([2]; MRC-5, till 10 mM HPβCD) was “almost zero percentage cell death” and the “cell death (apoptosis)” value ([3]; HEK-293, 20 mM HPβCD) was roughly 15%. For the same substance, the “cell death (apoptosis)” value ([3]; HEK-293, 50 mM HPβCD) was roughly 18%, the “cell death (apoptosis)” value ([3]; HEK-293, till 10 mM HPβCD) was “almost zero percentage cell death” and the “cell death (apoptosis)” value [4] was “around 45%”. The “lipid rafts (ALEXA FLUOR) in treated vs untreated cells” value [5] was “decrease in lipid rafts”, the “total cholesterol content compared to untreated” value [6] was “reduced total cholesterol content” and the “total cholesterol reduction compared to untreated” value ([7]; MRC-5, 10 mM HPβCD, 24 hrs) was “more than 50%”. The “total cholesterol content compared to untreated” value ([7]; MRC-5, all concentrations 1, 5, 10, 20, 50 mM) was “reduced total cholesterol content”, the “total cholesterol content compared to untreated” value [8] was “reduced total cholesterol content” and the “necrosis, share of the total tumour examined” value ([9]; intermediate group) was 6-10%. For the same substance, the MITOSES ([9]; intermediate stage treated mice, one value per case) was 70 Atypical and 59 Atypical and 67 Atypical, the NECROSIS ([9]; intermediate stage treated mice, one value per case (INTM 13, 31, 32)) was “Focal necrosis; also recorded: Occasional; also recorded: Multiple pockets” and the “apoptotic cells compared to the intermediate group” value ([9]; late group) was 2.9 times. For the same substance, the “increase in number of apoptotic cells compared to the untreated group” value ([9]; late group) was roughly 1.7 fold, the “mitotic activity lower than in the other two groups” value ([9]; late group) was “approximately 1.1 times” and the “increase in necrosis compared to the untreated group” value ([9]; late group, case Late 12) was roughly 4 fold. For the same substance, the “necrosis, share of the tissue examined” value ([9]; late group, case Late 12) was “up to 20%”, the “APOPTOSIS/ 10 HPF” value [9, 14] was 21 and 30 and 39 and 32 and 27 and the “EPID/ MUSCLE INV.” value [9, 14] was “No muscle present; also recorded: No muscle or epidermis; also recorded: Muscle invasion”. For the same substance, the MITOSES [9, 14] was 60 and 65 and 57 and 59 and 50, the NECROSIS ([9]; late stage treated mice, one value per case (LATE 8 (1), 8 (2), 11, 12, 14)) was “Necrosis seen” and the tumour outcome ([10]; early stage (20 mm^3 at start), 3000 mg/kg b.w., 10 doses, 3000 mg/kg) was “completely healed; also recorded: Complete healing of tumour”. The “average size of the tumours” value [10, 15] was 784.18 mm3, the “tumour reduction compared to the untreated group” value [10, 15] was 94% and the “tumour reduction compared to the untreated group” value ([10]; late stage, 3000 mg/kg b.w. intraperitoneally, 10 doses) was 73.9%. For the same substance, the relapse of tumour ([10]; three healed early stage mice, 4 weeks) was “no recurrence of the tumour; also recorded: no relapse at all”, the “SREBP-1 activity compared to untreated lysate” value [11] was “remained equal” and the “SREBP-1 protein level compared to untreated lysate” value [12] was “about two and a half times less activity of SREBP-1”. The “SREBP-1 protein level compared to untreated lysate” value [13] was “about five times less activity of SREBP-1”.
